The term IC50 denotes the concentration that gives 50% inhibition.

The target of test [1] is T1, C. albicans GGPTase (Candida albicans, UniProt Q8J224+Q9Y764).
T1 sequence (Q9Y764 1-398): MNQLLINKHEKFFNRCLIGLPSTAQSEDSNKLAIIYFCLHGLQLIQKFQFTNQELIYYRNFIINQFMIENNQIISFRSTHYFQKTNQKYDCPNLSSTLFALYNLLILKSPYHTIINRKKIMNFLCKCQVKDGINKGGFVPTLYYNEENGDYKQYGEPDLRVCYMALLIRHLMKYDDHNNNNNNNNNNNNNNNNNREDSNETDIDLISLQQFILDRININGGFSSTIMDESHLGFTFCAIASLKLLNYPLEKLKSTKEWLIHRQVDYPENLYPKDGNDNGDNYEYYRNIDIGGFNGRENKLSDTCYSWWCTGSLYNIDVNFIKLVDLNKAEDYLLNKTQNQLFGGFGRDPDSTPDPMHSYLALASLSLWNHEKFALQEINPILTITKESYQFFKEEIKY
T1 sequence (Q8J224 1-306): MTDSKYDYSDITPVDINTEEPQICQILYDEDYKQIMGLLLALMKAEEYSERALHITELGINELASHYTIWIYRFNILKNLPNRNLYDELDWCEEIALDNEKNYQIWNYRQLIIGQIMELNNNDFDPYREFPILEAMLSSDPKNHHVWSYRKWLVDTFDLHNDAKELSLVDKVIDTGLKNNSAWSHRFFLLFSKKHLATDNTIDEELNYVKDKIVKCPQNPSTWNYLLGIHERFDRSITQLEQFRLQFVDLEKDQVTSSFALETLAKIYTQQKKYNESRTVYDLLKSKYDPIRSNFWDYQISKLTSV
The experiment in a line: biochemical. The method, then: Plate test compounds (10 μL per well) at predetermined concentration in 50% DMSO. For background control (blank) and reaction control (negative), add 10 μL of 200 μM GGPP and 10 μL 50% DMSO, respectively. Prepare assay buffer: 50 mM Tris, pH7.5, 20 mM KCL, 5 mM MgCl2, 5 μM ZnCl2, 0.5 mM Zw(3-14), 2 mM DTT and 0.1 mg/mL BSA.
Add 20 μL of C. albicans GGPTase and ^3H-GGPP in assay buffer to test compound. Preincubate enzyme and ^3H-GGPP with test compound for 15 minutes at room temperature. Add 20 μL C. albicans Rho in assay buffer. Incubate for 30 minutes at room temperature. Final assay conditions are 2 nM C. albicans GGPTase, 250 nM ^3H-GGPP and 250 nM C. albicans Rho.
Add 100 μL 15 mM GGPP, 50 mM Tris, pH7.0 and 2% BSA to quench reaction. Transfer reaction to Nickel chelate FlashPlate. Allow his-tagged C. albcians Rho to capture onto plate. Rinse plate 1× with 200 μL 20 mM Tris, pH7.0. Read in TOPCOUNT.

Test [2] addresses human GGTase (Homo sapiens, UniProt P53609). Description: Human GGTase inhibition (Hu GG). Conditions: read-out: IC50 (nM) Hu GG. In kind it is biochemical. The text has this:
As described below, a variety of different compounds were synthesized and tested for inhibitory activity against human and Candida GGTase. Exemplary synthesis schemes for generating prenyltransferase inhibitors useful in the methods and compositions of the present invention are shown in FIGS. 1-56. Tables 1-5 provide Structure-Activity relationship (SAR) data for several different classes of prenyltransferase inhibitors.

Test [3] addresses Hu FT (Homo sapiens, UniProt P49356). The experiment in a line: Human FT inhibition (Hu FT). Conditions: Table 3 Piperidine Analogs. The test is classed as biochemical.
The subject of test [4] is Asp GG. The experiment in a line: Asp GG inhibition. The test is classed as biochemical.
Test [5] deals with Cryp GG. The experiment in a line: Cryp GG inhibition. The test is classed as biochemical.
For test [6], the system named is C. albicans. Description: In vitro susceptibility testing of compounds in C. albicans (MIC). The test is classed as cell-based. The settings on record: for MIC: Candida albicans, read-out: MIC (μg/mL) C alb; for MIC (μg/mL) C alb: Table 1. The procedure: 1: Innoculate strain C. albicans strain such as SC5314 into 20 mL of the appropriate medium and incubate at 35° C. with shaking (220 rpm) overnight
2: Count the C. albicans cells in a 1:10 dilution of the overnight culture using a haemocytometer.
3: Work out the dilution factor required to bring the cell number to 1×10^3 cells/100 μL (equivalent to 1×10^4 cells/mL) then add the required volume of the overnight culture to 25 mL media in a falcon tube.
4: Vortex the diluted cells and immediately pipette 100 μL of the cell suspension to each of the required rows of a 96 well plate using the multipipettor.
5: Prepare each of the 100×stock solutions for the compounds to be tested in DMSO in the required concentration range in Eppendorf tubes.
6: The dilution series for each of the compounds may now be prepared in sequence:
For each compound—start with highest dilution. Add 10 μL compound in DMSO to the 490 μL of appropriate media. Immediately vortex and add 100 μL to the appropraite row of cells on the 96-well plate. Repeat this process for the next and subsequent concentrations of this compound before starting on the dilution series for additional compounds.
7: When complete cover the 96-well plate with an acetate sheet and incubate at 35° C. Inspect visually and record results for both plates at the 24 hr and 48 hr. The MIC corresponds to the concentration of compound where no visible growth is observed.

The mark [7] stands for this setting: Table 3 Piperidine Analogs, read-out: IC50 (nM) Ca GG.
The mark [8] stands for this setting: Table 1, read-out: IC50 (nM) Ca GG.
Where [9] appears, read: Table 1 Peptide Analogs, read-out: IC50 (nM) Ca GG.

Where two headings read alike, the source gives them in different places. Peptide text beside a SMILES is read from it.

`N[C@@H](CS)C(=O)N1CCC(C(=O)NCc2ccncc2)(c2ccccc2)CC1` [Compound 53k]: the IC50 in test [1] (setting [7]) is less than 10 nM; in test [2] (Table 3 Piperidine Analogs), more than 1000 nM; in test [3], more than 1000 nM; in test [4] (Table 3 Piperidine Analogs) it was more than 1000 nM; in test [5] (Table 3 Piperidine Analogs), more than 1000 nM.
Consider `N[C@@H](CS)C(=O)N1CCC(C(=O)NCc2cccc(-c3ccccc3)c2)(c2ccccc2)CC1` [Compound 53e], for which the figures for the IC50 in test [1] (setting [7]), in test [2] (Table 3 Piperidine Analogs) and in test [3] were less than 100 nM, more than 1000 nM and more than 1000 nM, respectively.
Take `N[C@@H](CS)C(=O)N1CCC(C(=O)NCc2ccc3c(c2)OCO3)(c2ccccc2)CC1` [Compound 53q]: the values for the IC50 in test [1] (setting [7]), in test [2] (Table 3 Piperidine Analogs) and in test [3] were less than 100 nM, more than 1000 nM and more than 1000 nM, respectively.
Take `N[C@@H](CS)C(=O)N1CCC(C(=O)NCc2cccc3ccccc23)(c2ccccc2)CC1` [Compound 53w]: the figures for the IC50 in test [1] (setting [7]), in test [2] (Table 3 Piperidine Analogs) and in test [3] were less than 100 nM, more than 500 nM and more than 1000 nM, respectively.
For `N[C@@H](CS)C(=O)N1CCC(C(=O)NCc2nc3ccccc3[nH]2)(c2ccccc2)CC1` [Compound 53h] the same measures were less than 100 nM, more than 1000 nM and more than 1000 nM.
The matching figures for `N[C@@H](CS)C(=O)N1CCC(C(=O)NCc2cccc(OC(F)(F)F)c2)(c2ccccc2)CC1` [Compound 53p]: less than 100 nM, less than 1000 nM and more than 1000 nM.
Consider `NC[C@H](NC(=O)[C@@H](N)CS)C(=O)NCc1cccc2ccccc12` [Compound 89a], for which the IC50 in test [1] (setting [8]) is less than 1000 nM; in test [1] (setting [9]), less than 1000 nM; in test [2] (Table 1), more than 1000 nM; in test [2] (Table 1 Peptide Analogs) it was more than 1000 nM; in test [5] (Table 1), more than 1000 nM; in test [5] (Table 1 Peptide Analogs) it was more than 1000 nM. Besides, the MIC in test [6] was more than 200 µg/mL. In addition, the “MIC (μg/mL) C alb” value in test [6] is more than 200 µg/mL.
On to `N[C@@H](CS)C(=O)N1CCC(C(=O)NCCN2CCCC2)(c2ccccc2)CC1` [Compound 53g], for which the IC50 is less than 100 nM in test [1] (setting [7]), more than 1000 nM in test [2] (Table 3 Piperidine Analogs) and more than 1000 nM in test [3].
On to `N[C@@H](CS)C(=O)N1CCC(C(=O)NCCCn2ccnc2)(c2ccccc2)CC1` [Compound 53j], for which the results for the IC50 in test [1] (setting [7]), in test [2] (Table 3 Piperidine Analogs) and in test [3] were less than 100 nM, more than 1000 nM and more than 1000 nM, respectively.
Regarding `COc1ccccc1CNC(=O)C1(c2ccccc2)CCN(C(=O)[C@@H](N)CS)CC1` [Compound 53u], the half-maximal inhibitory concentration (IC50) in test [1] (setting [7]) was less than 100 nM; in test [2] (Table 3 Piperidine Analogs) it was more than 500 nM; in test [3] it was more than 1000 nM.
The matching figures for `N[C@@H](CS)C(=O)N1CCC(C(=O)N[C@@H]2C[C@H]2c2ccccc2)(c2ccccc2)CC1` (relative stereo) [Compound 53v]: less than 10 nM, more than 1000 nM and more than 1000 nM.
Turning to `NC[C@H](NC(=O)[C@@H](N)CS)C(=O)N1CCC(C(=O)NCc2ccncc2)(c2ccccc2)CC1` [Compound 89c], the IC50 was less than 1000 nM in test [1] (setting [8]); less than 1000 nM in test [1] (setting [9]); more than 1000 nM in test [2] (Table 1); more than 1000 nM in test [2] (Table 1 Peptide Analogs); more than 1000 nM in test [4] (Table 1); more than 1000 nM in test [4] (Table 1 Peptide Analogs). Also, the IC50 in test [5] (Table 1) and in test [5] (Table 1 Peptide Analogs) was more than 1000 nM throughout.
As to `N[C@@H](CS)C(=O)N1CCC(C(=O)NCCCN2CCOCC2)(c2ccccc2)CC1` [Compound 53f], the IC50 in test [1] (setting [7]) was less than 500 nM; in test [2] (Table 3 Piperidine Analogs) it was more than 1000 nM; in test [3], more than 1000 nM; in test [4] (Table 3 Piperidine Analogs) it was more than 1000 nM; in test [5] (Table 3 Piperidine Analogs), more than 1000 nM.
Regarding `N#CC1CCC(CNC(=O)C2(c3ccccc3)CCN(C(=O)[C@@H](N)CS)CC2)CC1` (stereo partly shown) [Compound 53n], the IC50 in test [1] (setting [7]) is less than 100 nM; in test [2] (Table 3 Piperidine Analogs) it was more than 1000 nM; in test [3], more than 1000 nM.
For `CC(C)C[C@H](NC(=O)C1(c2ccccc2)CCN(C(=O)[C@@H](N)CS)CC1)C(N)=O` [Compound 53i], the IC50 in test [1] (setting [7]) was less than 100 nM; in test [2] (Table 3 Piperidine Analogs), less than 100 nM; in test [3], more than 1000 nM.
`N[C@@H](CS)C(=O)N1CCC(C(=O)NCc2ccc(F)cc2F)(c2ccccc2)CC1` [Compound 53r]: the results for the IC50 in test [1] (setting [7]), in test [2] (Table 3 Piperidine Analogs) and in test [3] were less than 100 nM, more than 1000 nM and more than 1000 nM, respectively.
Regarding `N[C@@H](CS)C(=O)N1CCC(C(=O)NCC(=O)Nc2ccc3ccccc3c2)(c2ccccc2)CC1` [Compound 53o], the IC50 in test [1] (setting [7]) is less than 1000 nM; in test [2] (Table 3 Piperidine Analogs) it was more than 1000 nM; in test [4] (Table 3 Piperidine Analogs), more than 1000 nM; in test [5] (Table 3 Piperidine Analogs) it was more than 1000 nM.
Turning to `N[C@@H](CS)C(=O)N1CCC(C(=O)NC2c3ccccc3-c3ccccc32)(c2ccccc2)CC1` [Compound 53z], the half-inhibitory concentration (IC50) in test [1] (setting [7]) is less than 100 nM; in test [2] (Table 3 Piperidine Analogs) it was more than 1000 nM; in test [3], more than 1000 nM; in test [4] (Table 3 Piperidine Analogs), more than 1000 nM; in test [5] (Table 3 Piperidine Analogs), more than 1000 nM.
For the compound `CC(C)C[C@H](NC(=O)[C@H](Cc1cccc2ccccc12)NC(=O)[C@H](CCO)NC(=O)[C@@H](N)CS)C(=O)O` [Compound 5a] (HELM PEPTIDE1{C.[O=C([C@H](CCO)N[*:1])[*:2]].[O=C([C@H](Cc1cccc2ccccc12)N[*:1])[*:2]].L}$$$$V2.0), the IC50 in test [1], in test [2] (Table 1) and in test [2] (Table 1 Peptide Analogs) was less than 500 nM throughout.
Regarding `NC[C@H](NC(=O)[C@@H](N)CS)C(=O)N1CCN(C(c2ccc(F)cc2)c2ccc(F)cc2)CC1` [Compound 89g], the IC50 in test [1] (setting [8]) is less than 500 nM; in test [1] (setting [9]), less than 500 nM; in test [2] (Table 1), more than 1000 nM; in test [2] (Table 1 Peptide Analogs) it was more than 1000 nM.
Take `CC(C)C[C@H](NC(=O)[C@H](Cc1cccc2ccccc12)NC(=O)[C@@H](N)CNC(=O)[C@@H](N)CS)C(=O)O` [Compound 5c] (HELM PEPTIDE1{[N[C@@H](CN[*:3])C(=O)[*:2]].[O=C([C@H](Cc1cccc2ccccc12)N[*:1])[*:2]].L}|PEPTIDE2{C}$PEPTIDE1,PEPTIDE2,1:R3-1:R2$$$V2.0): the IC50 is less than 1000 nM in test [1] (setting [8]), less than 1000 nM in test [1] (setting [9]), more than 1000 nM in test [2] (Table 1) and more than 1000 nM in test [2] (Table 1 Peptide Analogs).
With `NC[C@H](NC(=O)[C@@H](N)CS)C(=O)NCc1cccc(-c2ccccc2)c1` [Compound 89b], the IC50 in test [1] (setting [8]) was less than 500 nM; in test [1] (setting [9]), less than 500 nM; in test [2] (Table 1) it was more than 1000 nM; in test [2] (Table 1 Peptide Analogs), more than 1000 nM. Besides, in test [6], the MIC is more than 200 µg/mL. Also, the “MIC (μg/mL) C alb” value in test [6] was more than 200 µg/mL.

(Values after US6423519B1, “Compositions and methods for inhibiting fungal growth” (GPC Biotech Inc., priority 1998, dated 2002).)
